Source: ChEMBL document CHEMBL4184219, “Binding-Site Compatible Fragment Growing Applied to the Design of β2-Adrenergic Receptor Ligands” (J Med Chem, 2018)

Tests used:
[1] = molecular target: T1, Beta-2 adrenergic receptor (Homo sapiens, UniProt P07550); assay: Ratio of Ki for Nb69-fused beta2 adrenergic receptor (unknown origin) to Ki for Nb80-fused beta2 adrenergic receptor (unknown origin)
[2] = molecular target: T1, Beta-2 adrenergic receptor; assay: Displacement of [3H]-DHA from Nb80-fused beta2 adrenergic receptor (unknown origin) expressed in Sf9 cell membranes after 2 hrs by microbeta scintillation counting method
[3] = molecular target: T1, Beta-2 adrenergic receptor; assay: Displacement of [3H]-DHA from Nb69-fused beta2 adrenergic receptor (unknown origin) expressed in Sf9 cell membranes after 2 hrs by microbeta scintillation counting method

T1 sequence (P07550 whole entry, looked up, the tested form may be a part): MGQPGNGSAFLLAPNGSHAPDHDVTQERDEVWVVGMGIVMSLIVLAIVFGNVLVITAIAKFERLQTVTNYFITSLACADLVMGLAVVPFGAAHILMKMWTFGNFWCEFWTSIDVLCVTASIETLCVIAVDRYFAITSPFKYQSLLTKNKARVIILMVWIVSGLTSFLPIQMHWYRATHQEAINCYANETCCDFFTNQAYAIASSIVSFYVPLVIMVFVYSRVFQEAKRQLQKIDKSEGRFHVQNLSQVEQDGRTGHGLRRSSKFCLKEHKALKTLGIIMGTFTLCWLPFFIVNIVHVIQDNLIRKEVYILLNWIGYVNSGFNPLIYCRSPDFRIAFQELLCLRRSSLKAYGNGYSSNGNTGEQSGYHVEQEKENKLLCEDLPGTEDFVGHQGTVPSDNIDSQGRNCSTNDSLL

C[C@H](CC(F)(F)F)NCc1ccc(-c2nccs2)cc1
Ratio Ki [1]: 7.5
Ki [2]: 52.3 µM
Ki [3]: 393 µM

CC1(NCc2cc3ccccc3s2)COC1
Ratio Ki [1]: > 10
Ki [2]: > 1000 µM
Ki [3]: > 1000 µM

OCC(NCc1ccc(-c2nccs2)cc1)c1ccco1 (centres undefined)
Ratio Ki [1]: > 51
Ki [2]: 95.4 µM
Ki [3]: > 1000 µM

CNCc1ccc(-c2nccs2)cc1
Ratio Ki [1]: 11
Ki [2]: 33.5 µM
Ki [3]: 365 µM

CC(NC1CC(c2ccc(F)cc2)C1)c1ccc(Cl)cc1 (centres undefined)
Ratio Ki [1]: 9.4
Ki [2]: 7.89 µM
Ki [3]: 74 µM

Cc1ccccc1C(C)NCc1ccc(-c2ncccn2)cc1 (centres undefined)
Ratio Ki [1]: 61
Ki [2]: 4.39 µM
Ki [3]: 268 µM

COc1ccc2c(c1)c(CCN)cn2C
Ratio Ki [1]: 1.8
Ki [2]: 20.4 µM
Ki [3]: 36.2 µM

CNCc1cc2ccccc2s1
Ratio Ki [1]: 8.6
Ki [2]: 43.2 µM
Ki [3]: 373 µM

COc1ccc2c(c1)c(CCNCCCc1ccc(Cl)cc1)cn2C
Ratio Ki [1]: 7.5
Ki [2]: 0.52 µM
Ki [3]: 3.9 µM

CC(N)c1ccc(Cl)cc1 (centres undefined)
Ratio Ki [1]: > 61
Ki [2]: 33.8 µM
Ki [3]: > 1000 µM

NCc1ccc(-c2ncccn2)cc1
Ratio Ki [1]: > 91
Ki [2]: 78.1 µM
Ki [3]: > 1000 µM

COc1ccc2c(c1)c(CCNCc1cc(OC(F)(F)F)ccc1F)cn2C
Ratio Ki [1]: 1
Ki [2]: 80.4 µM
Ki [3]: 83.8 µM

COc1ccc2c(c1)c(CCNCCCc1cccc(C(F)(F)F)c1)cn2C
Ratio Ki [1]: 2.4
Ki [2]: 10.4 µM
Ki [3]: 25 µM
